Reference: patent US8119640B2, “Hedgehog pathway antagonists methods of use” (The Board of Trustees of the Leland Stanford Junior …, priority 2008, dated 2012)
Read-outs that look alike come from different tables or passages of the source.

Tests used:
Smo = Smo (Mus musculus, UniProt P56726); assay: BODIPY-cyclopamine/Smo binding assay; design: expressed in transfected cells; host or cells: HEK-293T; species or system murine; conditions: 5 nM BODIPY-cyclopamine, Smo-overexpressing HEK-293T cells, HPIs 20 μM
Smo, sequence (P56726 33-793): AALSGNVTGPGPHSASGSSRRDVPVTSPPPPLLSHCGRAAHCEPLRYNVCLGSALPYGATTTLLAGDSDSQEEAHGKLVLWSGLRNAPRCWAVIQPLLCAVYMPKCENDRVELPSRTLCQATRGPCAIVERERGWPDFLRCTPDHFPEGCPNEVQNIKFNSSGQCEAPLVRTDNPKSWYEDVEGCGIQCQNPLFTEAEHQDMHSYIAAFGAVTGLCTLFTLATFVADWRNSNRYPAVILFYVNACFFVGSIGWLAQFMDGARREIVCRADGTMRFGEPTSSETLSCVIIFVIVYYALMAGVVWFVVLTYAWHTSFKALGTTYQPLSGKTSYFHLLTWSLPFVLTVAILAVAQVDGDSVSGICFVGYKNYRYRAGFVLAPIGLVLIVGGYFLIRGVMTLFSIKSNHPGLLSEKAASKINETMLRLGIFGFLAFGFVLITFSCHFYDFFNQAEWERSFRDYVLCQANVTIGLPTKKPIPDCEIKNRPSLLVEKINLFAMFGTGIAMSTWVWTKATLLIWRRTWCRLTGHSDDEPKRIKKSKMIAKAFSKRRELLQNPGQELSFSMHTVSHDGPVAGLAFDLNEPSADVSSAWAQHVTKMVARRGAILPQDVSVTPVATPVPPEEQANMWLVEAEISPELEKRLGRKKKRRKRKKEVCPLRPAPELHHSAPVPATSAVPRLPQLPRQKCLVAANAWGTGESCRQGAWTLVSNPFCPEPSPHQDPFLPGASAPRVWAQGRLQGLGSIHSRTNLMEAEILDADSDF
Method: BODIPY-cyclopamine/Smo binding assay. Smo-binding assays were conducted with BODIPY-cyclopamine and Smooverexpressing and HEK-293T cells as previously described, using a CMV-promoter based SV40 origin-containing expression construct for Smo-Myc3 (murine Smo containing three consecutive Myc epitopes at the C-terminus). […] The cells were cultured until they reached 55 to 65% confluency (14-18 h), after which they were transfected with the Smo-Myc3 expression construct and FuGENE (Roche) according to the manufacturer's protocols. 24 h after transfection, the cells were washed with phosphate-buffered saline (PBS) and cultured in DMEM containing 0.5% FBS, 5 nM BODIPY-cyclopamine, and individual HPIs (20 μM). After 30 min, 10 μM Hoescht 33342 was added to each well, and the HPIs were incubated with the cells for an additional 60 min. The cells were then washed two times with PBS buffer, mounted in Prolong Gold (Invitrogen) and immediately imaged using a DM4500B compound microscope (Leica).

Hh pathway [1] = assay: Shh-EGFP assay for Hh pathway activation; format: cell-based; conditions: Shh-N-conditioned medium; HPIs at ten-fold their Shh-LIGHT2 IC50 or 30 μM, whichever lower
Method: Shh-EGFP assay for Hh pathway activation. A Gli-dependent enhanced green fluorescent protein reporter (Shh-EGFP) was generated by excising firefly luciferase cDNA from the 8XGliBs vector using NcoI/Hpal, and ligating in EGFP cDNA excised from the pEGFP-C1 vector (Clontech) by NcoI/Af/II digestion. […] The cells were grown to confluency and treated with DMEM containing 0.5% CS, 100 U/mL penicillin, 0.1 mg/mL streptomycin, and 5% Shh-N-conditioned medium for 30 h. Following Shh-N treatment, the adherent cultures were dissociated into single cells with 0.05% Trypsin-EDTA (300 μL/well; Invitrogen) for 5 min. The cells were then suspended in 1 mL of PBS containing 1% CS and sorted on a BD FACSAria (excitation: 488 nm; emission: 530/30 nm) to enrich for cells expressing EGFP in a Shh-N-responsive manner. […] To identify Shh-EGFP clones with maximum Shh-N-responsiveness, individual lines were seeded into 24-well plates (45,000 cell/well) and cultured for 48 h. The cells were then treated with DMEM containing 0.5% CS, 100 U/mL pencillin, 0.1 mg/mL streptomycin or the culture medium plus 5% Shh-N-conditioned medium. After 30 h, the adherent cultures were treated with 0.05% trypsin-EDTA (150 μL/well; Invitrogen) for 5 min to dissociate them into single cells. The cells were then resuspended in 500 μL of PBS containing 1% CS and analyzed on a BD FACSCalibur (excitation: 488 nm; emission: 530/30 nm). 10,000 cells were used to assess EGFP expression levels as a measure of Hh pathway activation, and the data was analyzed using FlowJo software (Tree Star). Clones with low basal EGFP levels and maximum Shh-Ninduced EGFP expression were selected for further use. To assess the inhibitory activities of the HPIs in the Shh-EGFP cells, a clonal line with maximum Shh-responsiveness was cultured in 24-well plates as described above. […] The resulting EGFP levels were then evaluated by FACS and quantified using the FlowJo software.

C3H10T(1/2) cells = assay: C3H10T(1/2) assay for Hh pathway activation (alkaline phosphatase); format: cell-based; conditions: Mus musculus
Method: C3H10T(1/2) assay for Hh pathway activation. C3H10T(1/2) cells (ATCC) were plated into 96-well plates using DMEM containing 10% FBS, 100 U/mL penicillin, 0.1 mg/mL streptomycin, 5% Shh-N-conditioned medium, and various concentrations of the Hh pathway inhibitors. After approximately 40 h, the cells were washed with PBS and lysed in 50 μL of buffer containing 50 mM Tris-HCl, pH 9.5, 150 mM NaCl, 5 mM MgCl2, and 1% Triton X-100. Alkaline phosphatase activities in the cell lysates were quantified by adding 10 μL of the lysate to 50 μL of CDP-Star chemiluminescence reagent (Perkin Elmer) and measuring the resulting chemiluminescence on a Veritas microplate luminometer.

Hh pathway [2] = assay: Su(fu)-/- fibroblasts assay for Hh pathway activation; format: cell-based; conditions: for % Inhibition Su(fu)-/- MEFs: Gli-dependent firefly luciferase, 15 μM HPI-1, 20 μM HPI-2, 30 μM HPI-3, 30 μM HPI-4; for Toxicity noted in Su(fu)-/- MEFs: printed instead of % inhibition
Method: Su(fu)^−/− fibroblasts assay for Hh pathway activation. […] After 24 h, the cells were transfected with Fugene HD (Roche), 8xGliBS-FL (95 ng/well), phRLSV40 (5 ng/well; Promega), and pEGFP-C1 (300 ng/well as a carrier; Clontech) according to the manufacturer's protocols. […] The resulting firefly and Renilla luciferase activities were measured using a dual luciferase kit and Veritas microplate luminometer.

[3] = C3H 10T1/2, Shh-induced differentiation, alkaline phosphatase, read-out: IC50 (uM) Shh/C3H10T[1/2] cells

| % Inhibition Su(fu)-/- MEFs (Hh pathway [2]) | SMILES | BODIPY-cyclopamine competition (Smo) | % Inhibition Shh-GFP cells (Hh pathway [1]) | IC50 (C3H10T(1/2) cells; [3]) | Repression of constitutive Hh pathway activity in Su(fu)-/- fibroblasts (Hh pathway [2]) | % Inhibition Su(fu)-/- MEFs (Hh pathway [2]; 1440 min) | Toxicity noted in Su(fu)-/- MEFs (Hh pathway [2]) | IC50 (C3H10T(1/2) cells; C3H 10T1/2, read-out: IC50 (uM) Shh/C3H10T[1/2] cells) |
| --- | --- | --- | --- | --- | --- | --- | --- | --- |
| 80.2% | COCCOC(=O)C1=C(C)NC2=C(C(=O)CC(c3ccccc3OC)C2)C1c1cccc(O)c1 (mixture of isomers) [Compound 8, 4-(3-Hydroxy-phenyl)-7-(2-methoxy-phenyl)-2-methyl-5-oxo-1,4,5,6,7,8-hexahydro-quinoline-3-carboxylic acid 2-methoxy-ethyl ester] | No | 86% | 0.4 µM | reduce Hh pathway activity in these cells to near-basal levels | – | – | – |
| – | N#Cc1cc2c(nc1SCC(=O)Nc1nc3ccccc3s1)CCC2 [Compound 1] | No | 74.4% | 0.9 µM | – | 95.2% | – | – |
| – | CCCCNC(=N)C(C)c1ccc(CC(C)C)cc1 (centres unmarked) [Compound 2] | No | 80.9% | 0.8 µM | – | 6.26% | – | – |
| – | Cc1cc(/C=c2\sc3nc4ccccc4n3c2=O)c(C)n1C(C)C [Compound 3] | No | 60.5% | 0.9 µM | – | 92.8% | – | – |
| – | O=C(Nc1cccc2ccccc12)OC[C@@H]1CCCN2CCCC[C@H]12 [Compound 4] | No | 63% | 0.8 µM | – | −7.55% | – | – |
| – | CCC(C)NS(=O)(=O)c1ccc(Cc2ccc(S(=O)(=O)NC(C)CC)cc2)cc1 (centres unmarked) [Compound 5] | No | 84.9% | 0.9 µM | – | 45.7% | – | – |
| – | CCOC(=O)c1cc2c(=O)n3ccccc3nc2n(C(C)C)c1=NC(=O)c1cc(OC)cc(OC)c1 [Compound 6] | No | 84.5% | 0.45 µM | – | 90% | – | – |
| – | CCN1CCCC1CNC(=O)C1CCN(c2nc3c(C)cc(C)cc3s2)CC1 (centres unmarked) [Compound 7] | No | 90.5% | 0.8 µM | – | 32.1% | – | – |
| – | CCOC(=O)c1cn(-c2ccccc2)nc1-c1ccc(OC)c(OC)c1 [Compound 9] | No | 86.5% | 0.8 µM | – | −26.9% | – | – |
| – | O=S(=O)(Nc1cc(Cl)c(Cl)cc1Cl)c1ccc(F)cc1 [Compound 10] | No | 78.8% | 4 µM | – | 81.8% | – | – |
| – | OCCNc1nc(N2CCN(c3ccccc3)CC2)nc2ccccc12 [Compound 11] | No | 76.7% | 2 µM | – | 70.7% | – | – |
| – | CC(C)(C)N(CCNS(=O)(=O)c1ccc(-c2cc(C(F)(F)F)no2)s1)Cc1ccco1 [Compound 12] | No | 87.5% | 0.25 µM | – | – | Toxic at 20 | – |
| – | CN1CCN(C2Cc3ccccc3Sc3ccccc32)CC1 (centres unmarked) [Compound 13] | No | 78.3% | 2.5 µM | – | – | Toxic at 15 | – |
| – | CCOc1ccc2ncc(C(=O)c3ccc(C)cc3)c(N3CCCC3)c2c1 [Compound 14] | No | 67.2% | – | – | 84.3% | – | 0.4 µM |
| – | O=C(Nc1nnc(S(=O)(=O)N2CCCCC2)s1)c1cccc(Br)c1 [Compound 15] | No | 86.9% | 4 µM | – | 89.1% | – | – |
| – | CCOc1ccc(CCNc2cnnc3c(Cl)cccc23)cc1OCC [Compound 16] | No | 82.7% | 0.2 µM | – | 62.1% | – | – |
| – | COc1ccc(OC)c2c1cc1n2CC(C)(C(=O)NC2CCCCCCC2)N(CCN(C)C)C1=O (centres unmarked) [Compound 17] | No | 80.2% | 2 µM | reduce Hh pathway activity in these cells to near-basal levels | 89.1% | – | – |
| – | N#CC(C(=O)c1ccc(Cl)cc1Cl)=C1NC(=O)c2ccccc2N1 [Compound 18] | No | 80% | 0.7 µM | – | 58.5% | – | – |
